Experimental data reported in US8506928B2, “Methods and compounds for targeting tissues” (The Regents of the University of California, priority 2007, dated 2013).
Residues, ends and D or L forms follow the SMILES beside them.

Columns and labels:
[1] = Pre-administration of RES inhibitors before CRPPR-3 liposomes; assay type: in vivo, mice; conditions: for decrease of accumulation within the heart: 90 minute time point, pre-administration before CRPPR-3 liposomes; for ratio of radioactivity in the heart with and without inhibitors: well counts at 90 minutes after CRPPR-3 liposome injection
Description: Blank liposomes: blank liposomes (DPPC:DSPE-PEG2000=98:2 (mol/mol), with diameter 100 nm) with 300 μg lipids (12 mg/kg) in 100 μl saline were injected 15 minutes before the radiolabeled targeted liposomes. Polyinosinic acid (PI): PI (P4154), purchased from Sigma-Aldrich, was dissolved in 0.9% sterile injection saline at 2 mg/ml. A small amount of sodium hydroxide solution was added to dissolve PI powder and the pH of the PI solution was adjusted to 7.4 with HCl solution. 5 μl of PI solution (˜10 μg of PI, 0.4 mg/kg) was diluted with 100 μl saline and injected 1 minute before the injection of the radiolabeled targeted liposomes. Control animals received an equal volume of saline solution. Clodronate liposomes: Clodronate liposomes were prepared as in [21]. 100 μl of clodronate liposomes (˜0.05 mg, 2 mg/kg) were injected 24 hours in advance of the administration of radiolabeled targeted liposomes. Control animals received an equal volume of saline solution. Free CRPPR Peptide (SEQ ID NO: 1): 700 μg of CRPPR peptides (SEQ ID NO: 1) (25 mg/kg) were injected 1 minute before the administration of radiolabeled targeted liposomes. Control animals received an equal volume of injection saline solution.

heart endothelium = conditions: described in [4]; cited from earlier work

| Molecule | decrease of accumulation within the heart [1] [%] | ratio of radioactivity in the heart with and without inhibitors [1] | target-to-muscle ratio, phage targeting (heart endothelium) |
| --- | --- | --- | --- |
| NC(N)=NCCC[C@H](NC(=O)[C@@H]1CCCN1C(=O)[C@@H]1CCCN1C(=O)[C@H](CCCN=C(N)N)NC(=O)[C@@H](N)CS)C(=O)O [CRPPR] (H-CRPPR-OH) | ~19 | 0.81 | greater than 300 fold |
| Polyinosinic acid [PI] | 41 | 0.59 | – |
